Values of other authors as cited in patent US4795645A, “Sustained release tablets of theophylline” (Yissum Research and Development, priority 1986, dated 1989).

Conditions: from oral solutions and plain uncoated tablets

In the case of `Cn1c(=O)c2[nH]cnc2n(C)c1=O` [Theophylline, theophylline], the absorption is given as “rapidly, consistently and completely absorbed”.
